These results are taken from patent US20130196980A1, “[…], […] AND THERAPEUTIC AGENT FOR FIBROMYALGIA” (AXIS INC., priority 2010, published 2013).

For the test, the system named is anti-VGKC complex antibody positive patient with fibromyalgia. The test is described as follows: Pain-relieving experiment by an anticonvulsant agent (patient pain VAS). It is filed as in vivo, human. Conditions: patient B; clonazepam 1.5 mg orally; non-depression type fibromyalgia, anti-VGKC complex antibody more than 100 pM. The text has this:
Pain-relieving experiments by an anticonvulsant agent for each anti-VGKC complex antibody positive patient with fibromyalgia
It is considered that the pain can be relieved by an anticonvulsant agent for an anti-VGKC complex antibody positive patient with fibromyalgia. Thus, for 3 patients (to whom a level of anti-VGKC complex antibody of more than 100 pM was detected) among 4 anti-VGKC complex antibody positive patients with fibromyalgia in Example 1, a pain-relieving experiment by an anticonvulsant agent for an anti-VGKC complex antibody positive patient with fibromyalgia was conducted. These patients were patients with fibromyalgia of non-depression type.
To patient A, gabapentine 900 mg and clonazepam 0.5 mg were orally administered. As a result, the value of patient pain VAS was reduced to 40 based on 100 before administration.
To patient B, clonazepam 1.5 mg was orally administered. As a result, the value of patient pain VAS was reduced to 30 based on 100 before administration.
To patient C, gabapentine 1600 mg and clonazepam 1.0 mg were orally administered. As a result, the value of patient pain VAS was reduced to 20 based on 100 before administration.

For `O=C1CN=C(c2ccccc2Cl)c2cc([N+](=O)[O-])ccc2N1` [clonazepam], the “value of patient pain VAS after administration, based on 100 before administration” value was 30.
